These results are taken from PMC11047580, “Design and Synthesis of Novel Amino and Acetamidoaurones with Antimicrobial Activities” (Antibiotics, 2024).

As usually defined, the MIC is the lowest concentration found to suppress growth. A higher MIC goes with a need for much substance. What is called CC50 is the concentration at which the toxic effect on the cells reaches its halfway point. A lower CC50 goes with greater toxicity to the cells. For orientation: melting point means the temperature, or range, at which the solid turns liquid.

≈ marks a conversion by molar mass, not a printed value.

In data set [1] the test system is B. subtilis ATCC6633. The experiment in a line: MIC assay. It is filed as cell-based, Bacillus subtilis. The conditions noted are these: Bacillus subtilis, ATCC6633; two-fold serial dilutions in liquid media; n = 2–3.
The subject of data set [2] is S. aureus ATCC6538P. The experiment in a line: MIC assay. Type of data set: cell-based, Staphylococcus aureus. The conditions noted are these: Staphylococcus aureus, ATCC6538P; two-fold serial dilutions in liquid media; n = 2–3.
A short description of data set [3]: Cytotoxic assay (resazurin). The note with it: human, IMR-90 normal lung fibroblasts. Background: Resazurin is reduced to fluorescent resorufin, in cell work by metabolically active cells.
The test system of data set [4] is M. smegmatis ATCC700084. Kind of data set: MIC assay (REMA). The conditions noted are these: Mycolicibacterium smegmatis, ATCC700084, REMA microdilution, n = 2–3. Type of data set: cell-based, Mycobacterium smegmatis.
Data set [5] is described as follows: Cytotoxic assay (resazurin). The note with it: human, Caco-2.
A short description of data set [6]: Cytotoxic assay (resazurin). The note with it: human, HaCaT normal epidermal keratinocytes.
Data set [7] in a line: Cytotoxic assay (resazurin). The conditions noted are these: human, HepG2 liver cells.
Data set [8] deals with E. coli ATCC8739. The experiment in a line: MIC assay. Type of data set: cell-based, Escherichia coli. The conditions noted are these: two-fold serial dilutions in liquid media, n = 2–3; for MIC: Escherichia coli, ATCC8739.
Data set [9] can be described thus: Cytotoxic assay (resazurin). The conditions noted are these: human, BEAS-2B normal lung epithelial cells.
Data set [10] relates to P. aeruginosa ATCC9027. Kind of data set: MIC assay. The note with it: Pseudomonas aeruginosa, ATCC9027; two-fold serial dilutions in liquid media; n = 2–3. It is filed as cell-based, Pseudomonas aeruginosa.
Data set [11] concerns human cells (A498, BEAS-2B, Caco-2, HaCaT, HepG2, IMR-90). Kind of data set: Cytotoxic assay, summary over the six human cell types. The note with it: for Highest TI: highest CC50 on human cells divided by MIC on S. aureus; for Lowest TI: lowest CC50 on human cells divided by MIC on S. aureus.
Assay in data set [12]: as above
The conditions noted are these: human, 48 h exposure.

Data set [13] deals with C. albicans DSM10697. Kind of data set: MIC assay. It is filed as cell-based, Candida albicans. The conditions noted are these: two-fold serial dilutions in liquid media, n = 2–3; for MIC: Candida albicans, DSM10697.
Data set [14] is described as follows: Cytotoxic assay (resazurin). The conditions noted are these: human, A498 kidney epithelial cells.
For data set [15], the system named is B. subtilis, S. aureus, E. coli, P. aeruginosa, M. smegmatis, C. albicans. Kind of data set: First MIC screening, summary over the species of Table 2. Type of data set: cell-based. The conditions noted are these: discussion of the first screening.
Where [16] appears, read: Highest CC50, highest of the six human cell types.
Where [17] appears, read: Lowest CC50, lowest of the six human cell types.
Setting [18] is: Mean CC50, mean over the six human cell types.

`Nc1ccc2c(c1)C(=O)/C(=C/c1cccc(OCc3ccccc3)c1)O2` [Compound 12, (Z)-5-amino-2-(3-(benzyloxy)benzylidene)benzofuran-3(2H)-one] displayed a melting point of 132.6 °C. For the same compound, the minimum inhibitory concentration (MIC) in data set [1] was 25 µM (≈ 8.58 µg/mL). In addition, the minimum inhibitory concentration (MIC) in data set [2] amounted to 100 µM (≈ 34.3 µg/mL). The compound further had a CC50 at 48 h in data set [3] of 42.4 µM. The same compound displayed an MIC in data set [4] of 50 µM (≈ 17.2 µg/mL). This compound yielded a CC50 at 48 h in data set [5] of 112 µM. This compound showed a CC50 at 48 h in data set [6] of 51.3 µM. Moreover, the CC50 at 48 h in [7] is 343 µM. Also, in data set [8], the minimal inhibitory concentration (MIC) was greater than 100 µM and the “MIC E. coli ATCC8739” value was “inactive”. In addition, the midpoint of cytotoxicity in [9], the CC50 at 48 h, lay at 74.6 µM. Also, the MIC in data set [10] is greater than 100 µM. Further, in data set [11], the “Highest TI” value worked out at 3.4 and the “Lowest TI” value was 0.4. This compound returned a CC50 at 48 h in data set [12] (setting [16]) of 343 µM. In data set [12] (setting [17]), this compound yielded a 50% cytotoxic concentration (CC50) at 48 h of 42.4 µM. In [12] (setting [18]), this compound came in with a half-maximal cytotoxic concentration (CC50) at 48 h of 129 µM. In addition, in data set [13], the MIC was greater than 100 µM and the “MIC C. albicans DSM10697” value was “inactive”. Besides, the 50% cytotoxic concentration (CC50) at 48 h in data set [14] was determined as 152 µM.
Consider `CC(=O)Nc1ccc2c(c1)C(=O)/C(=C/c1ccc(Oc3ccccc3)cc1)O2` [Compound 15, (Z)-N-(3-oxo-2-(4-phenoxybenzylidene)-2,3-dihydrobenzofuran-5-yl)acetamide], for which the melting point was found to be 213.5 °C. In data set [1], this compound yielded an MIC of 50 µM (≈ 18.6 µg/mL). For the same compound, inhibition of growth in data set [2] (MIC) required 100 µM (≈ 37.1 µg/mL). Further, in data set [3], the CC50 at 48 h is greater than 500 µM. This compound gave an MIC in data set [4] of 50 µM (≈ 18.6 µg/mL). Also, in data set [5], the CC50 at 48 h was determined as 137 µM. The CC50 at 48 h in data set [6] was greater than 500 µM. Moreover, in data set [7], the CC50 at 48 h was greater than 500 µM. Further, in data set [8], the MIC was greater than 100 µM and the “MIC E. coli ATCC8739” value was “inactive”. Further, in data set [9], the 50% cytotoxic concentration (CC50) at 48 h is 110 µM. In addition, the minimal inhibitory concentration (MIC) in data set [10] was greater than 100 µM. In data set [11], the “Highest TI” value is given as greater than 5 and the “Lowest TI” value stood at 1.0. The compound also returned a CC50 at 48 h in data set [12] (setting [16]) greater than 500 µM. The same compound displayed a CC50 at 48 h in data set [12] (setting [17]) of 110 µM. For the same compound, in data set [13], the MIC was greater than 100 µM and the “MIC C. albicans DSM10697” value is “inactive”. This compound had a CC50 at 48 h in data set [14] of 146 µM.
The compound `Nc1ccc2c(c1)C(=O)/C(=C/c1cccc(Oc3ccccc3)c1)O2` [Compound 16, (Z)-5-amino-2-(3-phenoxybenzylidene)benzofuran-3(2H)-one] had a melting point of 145.6 °C. The compound further yielded an MIC in data set [1] of 25 µM (≈ 8.23 µg/mL). Also, the MIC in data set [2] is 25 µM (≈ 8.23 µg/mL). Besides, the midpoint of cytotoxicity in data set [3], the CC50 at 48 h, lay at 116 µM. It took 50 µM (≈ 16.5 µg/mL) to inhibit growth in data set [4] (MIC). This compound had a CC50 at 48 h in data set [5] of 132 µM. The same compound registered a CC50 at 48 h in data set [6] of 80.4 µM. Moreover, the CC50 at 48 h in data set [7] was 398 µM. For the same compound, in [8], the lowest concentration to inhibit growth (MIC) was 25 µM (≈ 8.23 µg/mL). In data set [9], this compound registered a CC50 at 48 h of 130 µM. This compound displayed an MIC in data set [10] greater than 100 µM. Further, in data set [11], the “Highest TI” value was found to be 18.0 and the “Lowest TI” value was 3.2. For the same compound, it took 452 µM to reach half-maximal cytotoxicity in data set [12] (setting [16]) (CC50 at 48 h). Further, it took 80.4 µM to reach half-maximal cytotoxicity in [12] (setting [17]) (CC50 at 48 h). The half-maximal cytotoxic concentration (CC50) at 48 h in [12] (setting [18]) came out at 218 µM. For the same compound, in data set [13], the MIC was greater than 100 µM and the “MIC C. albicans DSM10697” value was “inactive”. Besides, in data set [14], the cytotoxic concentration (CC50) at 48 h came out at 452 µM.
As for `CC(=O)Nc1ccc2c(c1)C(=O)/C(=C/c1ccccc1OC(C)C)O2` [Compound 18, (Z)-N-(2-(2-isopropoxybenzylidene)-3-oxo-2,3-dihydrobenzofuran-5-yl)acetamide], the MIC in data set [1], in data set [2], in [4], in data set [8], in [10] and in data set [13] was greater than 100 µM each time. Further, the “activity against tested micro-organisms (in words)” value (“activity” for short) in data set [15] is recorded as “weak or no activity”.
In the case of `CC(=O)Nc1ccc2c(c1)C(=O)/C(=C/c1cccc(OC(C)C)c1)O2` [Compound 19, (Z)-N-(2-(3-isopropoxybenzylidene)-3-oxo-2,3-dihydrobenzofuran-5-yl)acetamide], the minimal inhibitory concentration (MIC) is greater than 100 µM in data set [1]; greater than 100 µM in [2]; greater than 100 µM in data set [4]; greater than 100 µM in [8]; 25 µM (≈ 8.43 µg/mL) in data set [10]; greater than 100 µM in [13]. Moreover, in [15], the “activity” value is reported as “weak or no activity”.
As to `CC(C)Oc1ccccc1/C=C1\Oc2ccc(N)cc2C1=O` [Compound 21, (Z)-5-amino-2-(2-isopropoxybenzylidene)benzofuran-3(2H)-one], the minimum inhibitory concentration (MIC) in data set [1], in data set [2], in data set [4], in data set [8], in [10] and in data set [13] was greater than 100 µM throughout. The “activity” value in data set [15] is reported as “weak or no activity”.
In the case of `CC(C)Oc1cccc(/C=C2\Oc3ccc(N)cc3C2=O)c1` [Compound 22, (Z)-5-amino-2-(3-isopropoxybenzylidene)benzofuran-3(2H)-one], the melting point was 198.4 °C. Further, the MIC in data set [1] is greater than 100 µM. In data set [2], this compound yielded a minimum inhibitory concentration (MIC) greater than 100 µM. The “activity” value in data set [15] is “weak or no activity”. In data set [4], this compound yielded an MIC greater than 100 µM. In [8], the MIC was greater than 100 µM. In [10], this compound had an MIC greater than 100 µM. In [13], this compound had an MIC greater than 100 µM.
Compound `Nc1ccc2c(c1)C(=O)/C(=C/c1cccc(C(F)(F)F)c1)O2` [Compound 30, (Z)-5-amino-2-(3-(trifluoromethyl)benzylidene)benzofuran-3(2H)-one] registered a melting point greater than 350 °C. For the same compound, the minimum inhibitory concentration (MIC) in [1] is greater than 100 µM. Also, the minimum inhibitory concentration (MIC) in data set [2] was greater than 100 µM. This compound also registered a minimum inhibitory concentration (MIC) in data set [4] greater than 100 µM. Also, the MIC in [8] was greater than 100 µM. In [10], this compound registered an MIC greater than 100 µM. The minimum inhibitory concentration (MIC) in data set [13] was greater than 100 µM.
